Results published in ChEMBL document CHEMBL1201862, “PubChem BioAssay data set” (2004).
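Results reflect a 48-hour exposure of cells in 96-well plates to compound at five concentrations. At the GI50, growth is halved.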 The source made the active and inactive calls. No stated cut-off is given here; in the data, active = GI50 up to about 1.1 µM and inactive = higher.

Key:
Test in all cases: DTP human tumour cell line panel, 48 h
SNB-75 = tested on: SNB-75
TK-10 = tested on: TK-10
NCI-H460 = tested on: NCI-H460
786-0 = tested on: 786-0
HL-60 = tested on: HL-60
NCI-H226 = tested on: NCI-H226
OVCAR-5 = tested on: OVCAR-5
MOLT-4 = tested on: MOLT-4
HOP-92 = tested on: HOP-92
SF-539 = tested on: SF-539
SW-620 = tested on: SW-620
RXF 393 = tested on: RXF 393
Malme-3M = tested on: Malme-3M
ACHN = tested on: ACHN
U-251 = tested on: U-251
RPMI-8226 = tested on: RPMI-8226
SK-MEL-28 = tested on: SK-MEL-28
SK-MEL-5 = tested on: SK-MEL-5
SNB-19 = tested on: SNB-19
NCI-H23 = tested on: NCI-H23
EKVX = tested on: EKVX
M14 = tested on: M14
M19-MEL = tested on: M19-MEL
OVCAR-3 = tested on: OVCAR-3
DLD-1 = tested on: DLD-1
HT-29 = tested on: HT-29
RXF 631 = tested on: RXF 631
DMS-273 = tested on: DMS-273
SN12C = tested on: SN12C
SF-295 = tested on: SF-295
SK-MEL-2 = tested on: SK-MEL-2
NCI-H522 = tested on: NCI-H522
OVCAR-4 = tested on: OVCAR-4
LXFL 529 = tested on: LXFL 529
XF498 = tested on: XF498
K562 = tested on: K562
IGROV-1 = tested on: IGROV-1
A498 = tested on: A498
COLO 205 = tested on: COLO 205
SK-OV-3 = tested on: SK-OV-3
KM-20L2 = tested on: KM-20L2
UACC-257 = tested on: UACC-257
CAKI-1 = tested on: CAKI-1
SNB-78 = tested on: SNB-78
HCC 2998 = tested on: HCC 2998
UO-31 = tested on: UO-31
DMS-114 = tested on: DMS-114
HOP-62 = tested on: HOP-62
KM12 = tested on: KM12
CCRF-CEM = tested on: CCRF-CEM
SF-268 = tested on: SF-268
LOX IMVI = tested on: LOX IMVI
OVCAR-8 = tested on: OVCAR-8
A549 = tested on: A549

Measured: GI50

CC1=C(C(=O)Nc2ccc([N+](=O)[O-])cc2)C(c2ccccc2O)C(C(=O)Nc2ccc([N+](=O)[O-])cc2)=C(C)N1
inactive: SNB-75 25.8 µM | TK-10 44.7 µM | NCI-H460 21.4 µM | 786-0 21.2 µM | HL-60 19.2 µM | NCI-H226 16.6 µM | OVCAR-5 16 µM | MOLT-4 15.2 µM | HOP-92 11.7 µM | SF-539 22.1 µM | SW-620 29.2 µM | RXF 393 10.1 µM | Malme-3M 21.8 µM | ACHN 13.8 µM | U-251 21.4 µM | RPMI-8226 17.6 µM | SK-MEL-28 21.6 µM | SK-MEL-5 16.4 µM | SNB-19 37.2 µM | NCI-H23 18.6 µM | EKVX 23.1 µM | M14 19.3 µM | M19-MEL 20.5 µM | OVCAR-3 20.5 µM | DLD-1 18.5 µM | HT-29 28.4 µM | RXF 631 15.4 µM | DMS-273 23.3 µM | SN12C 19.6 µM | SF-295 29.6 µM | SK-MEL-2 15.6 µM | NCI-H522 15 µM | OVCAR-4 23.7 µM | LXFL 529 19.1 µM | XF498 13.6 µM | K562 17.9 µM | IGROV-1 25.9 µM | A498 20.1 µM | COLO 205 17.5 µM | SK-OV-3 21.1 µM | KM-20L2 14.5 µM | UACC-257 21.7 µM | CAKI-1 21.4 µM | SNB-78 30.5 µM | HCC 2998 13.5 µM | UO-31 15.2 µM | DMS-114 15.3 µM | HOP-62 14.1 µM | KM12 20.2 µM | CCRF-CEM 18 µM | SF-268 19.1 µM | LOX IMVI 16.1 µM | OVCAR-8 28.2 µM | A549 28.2 µM
